Data taken from patent publication US20050081267A1, “Novel genes for conditional cell ablation” (Bayer Bioscience N.V., priority 2001, published 2005).

Columns and labels:
[1] = system: leaves of the transgenic plants (Tobacco, Nicotiana tabacum) expressing ArgJ coding sequence under 35S promoter; assay: Drop experiment on leaves of 35S-ArgJ transgenic tobacco plants; format: in vivo; conditions: 5 μl drops; dose of 4 mg/ml or 1 mg/ml; apparent 4 to 5 days after treatment; seven independent p35SARG transformants
From the text: The ArgJ coding sequence was recloned into the binary vector pROK1 under control of the Cauliflower Mosaic Virus 35S promoter sequence. The resulting plasmid p35SARG comprising the 35S promoter, ArgJ coding sequence and 35S terminator was transformed in Agrobacterium tumefaciens (strain ATHV) using standard methods. Tobacco (Nicotiana tabacum) leaf disks were transformed with the recombinant Agrobacteria according to the method of Horsch et al. (1985, Science 227:1229-1231) and selected on kanamycin medium. Seven independent transformants were regenerated. In a drop experiment, the leaves of the transgenic plants (and a number of control plants) were treated with 5 μl each of the following concentrations of N-acetyl- D, L-PPT: 4 mg/ml (=15 mM), 1 mg/ml (=3.75 mM), 0.4 mg/ml (=1.5 mM), 0.1 mg/ml (=0.38 mM). The treatment sites were examined for lightening or necrosis formation.

[2] = system: flower buds of the transgenic lines (Tobacco, Nicotiana tabacum) expressing ArgJ deacetylase under TA29 promoter; assay: Flower bud treatment to induce male-sterile flowers in TA29-ArgJ transgenic tobacco; format: in vivo; conditions: 10 μl of 5 mg/ml solution (0.1% Genapol)
From the text: The ArgJ coding sequence was recloned into the binary vector pROK1 under control of the TA29 promoter of tobacco. The resulting plasmid pTA29ARG comprising the TA29 promoter, ArgJ coding sequence and 35S terminator was transformed in Agrobacterium tumefaciens (strain ATHV) using standard methods. Tobacco (Nicotiana tabacurn) leaf disks were transformed with the recombinant Agrobacteria according to the method of Horsch et al. (1985, above) and selected on kanamycin medium.
To investigate tapetum-specific expression of the ArgJ deacetylase, flower buds of the transgenic lines were treated with N-acetyl-PPT to induce male-sterile flowers.
In each case only one side of the inflorescence ([…] of the developing flower bud) was treated with N-acetyl PPT, in order to eliminate possible contamination with natural male-sterility phenomena. Treatment was carried out on flower buds of 2 to 4 mm large. Transgenic and control plants were treated with 10 μl of 5 mg/ml N-acetyl PPT solution (0.1% Genapol as wetting agent). After the blooming of the buds (about 9-11 days after conclusion of the treatment) the plants were investigated for the occurrence of male-sterile flowers.

## CC(=O)NC(CCP(C)(=O)O)C(=O)O [N-acetyl- D, L-PPT, N-acetyl-phosphinothricin]
[1]
  lightening or necrosis formation at treatment sites (leaf damage): Four plants showed clearly visible leaf damage
[2]; control and wild-type plants
  occurrence of male-sterile flowers, control or wild-type tobacco flowers: no reaction was seen
[2]; flower buds 2 to 4 mm, examined about 9-11 days after treatment, pTA29ARG transgenic plants
  occurrence of male-sterile flowers from drop-treated flowerbuds, transgenic plants: In three out of seven transgenic plants, male-sterile flowers developed
